Data from the supplement of paper PMC8967900.

The molecules below were run on COG-LL-319h (assay: selective drug sensitivity score (sDSS, relative to normal bone marrow) (sDSS (score)); higher = more potent and effective on the cell line relative to normal bone marrow cells). Details: 72 h.
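Also: ALL cell lines in 384-well plates, five doses spanning 10,000-fold, each plate scaled between vehicle and 100 µmol/L benzalkonium chloride controls, sDSS an adapted area-under-curve metric.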

Row | SMILES | selective drug sensitivity score
1 | COC[C@H](NC(=O)c1cnc(C)s1)C(=O)N[C@@H](COC)C(=O)N[C@@H](Cc1ccccc1)C(=O)[C@@]1(C)CO1 [Oprozomib] (top concentration 2500 nM) | 3.5
2 | Cc1ccc(C(=O)N(CCCN)[C@@H](c2oc3cc(Cl)ccc3c(=O)c2Cc2ccccc2)C(C)C)cc1 (top concentration 100 nM) | 13
3 | CCn1c(C(=O)N(C2CC2)C2CC2)cc2c3c(ncn3C)c(Nc3cc(C)n(C)n3)nc21 (top concentration 10000 nM) | -4.36
4 | Nc1nc(Cl)nc2c1ncn2[C@@H]1O[C@H](CO)[C@@H](O)[C@@H]1F [Clofarabine] (top concentration 10000 nM) | 5.6
5 | Cc1ccc(C(=O)Nc2ccc(Oc3cc4cnn(C)c4cc3-c3cn[nH]c3)c(F)c2)c(=O)n1-c1ccc(F)cc1 [Merestinib] (top concentration 1000 nM) | -0.62
6 | Nc1ncn([C@@H]2O[C@H](CO)[C@@H](O)[C@H]2O)c(=O)n1 [Azacitidine] (top concentration 10000 nM) | 7.84
7 | CC(C)c1cc(-c2n[nH]c(=O)n2-c2ccc3c(ccn3C)c2)c(O)cc1O [Ganetespib] (top concentration 1000 nM) | 1.14
8 | C[C@]1(c2nc3c(C(N)=O)cccc3[nH]2)CCCN1 [Veliparib] (top concentration 10000 nM) | 1.02
9 | CC(=O)Nc1cccc(-n2c(=O)n(C3CC3)c(=O)c3c(Nc4ccc(I)cc4F)n(C)c(=O)c(C)c32)c1 [Trametinib] (top concentration 250 nM) | -0.74

What follows are molecules tested on COG-LL-332h in the same assay as above. Details: 72 h.

Row | SMILES | selective drug sensitivity score
10 | C/C=C1\NC(=O)[C@H]2CSSCC/C=C/[C@H](CC(=O)N[C@H](C(C)C)C(=O)N2)OC(=O)[C@H](C(C)C)NC1=O [Romidepsin] (top concentration 1000 nM) | 1.36
11 | CN(C)CCOc1ccc(/C(=C(/CCCl)c2ccccc2)c2ccccc2)cc1 [Toremifene] (top concentration 10000 nM) | 0.98
12 | CCCCc1nc2cc(/C=C/C(=O)NO)ccc2n1CCN(CC)CC [Pracinostat] (top concentration 10000 nM) | 0.58
13 | Cn1ncc(Cl)c1-c1cc(C(=O)N[C@H](CN)Cc2cccc(F)c2)sc1Cl [Afuresertib] (top concentration 1000 nM) | 2.86
14 | Cc1cc(-c2nc(-c3ccc(OC(F)(F)F)cc3)no2)nn1Cc1ccnc(N2CCN(C3CC3)CC2)c1 [BAY_87-2243] (top concentration 1000 nM) | 5.54
15 | CNc1nc(-c2ccc3c(N)n[nH]c3c2)cc(N2C[C@@H](C(=O)NC3CCCCC3)CC[C@H]2C)n1 (top concentration 10000 nM) | -0.14
16 | CN1CC[C@H](c2c(O)cc(O)c3c(=O)cc(-c4ccccc4Cl)oc23)[C@H](O)C1 [Alvocidib] (top concentration 10000 nM) | -0.3
17 | Cc1cc2c(C(C)C)c(O)c(O)c(C=O)c2c(O)c1-c1c(C)cc2c(C(C)C)c(O)c(O)c(C=O)c2c1O [AT-101] (top concentration 100000 nM) | 4.08
18 | Cc1ccc(C(=O)Nc2cccc(C(F)(F)F)c2)cc1Nc1nc(-c2cccnc2)nc2c1cnn2C [NVP-BHG712] (top concentration 10000 nM) | 5.98
19 | COC[C@H](NC(=O)c1cnc(C)s1)C(=O)N[C@@H](COC)C(=O)N[C@@H](Cc1ccccc1)C(=O)[C@@]1(C)CO1 [Oprozomib] (top concentration 2500 nM) | 10.6
20 | Cc1ccc(C(=O)N(CCCN)[C@@H](c2oc3cc(Cl)ccc3c(=O)c2Cc2ccccc2)C(C)C)cc1 (top concentration 100 nM) | 6.96
21 | CCn1c(C(=O)N(C2CC2)C2CC2)cc2c3c(ncn3C)c(Nc3cc(C)n(C)n3)nc21 (top concentration 10000 nM) | -4.36
22 | Nc1nc(Cl)nc2c1ncn2[C@@H]1O[C@H](CO)[C@@H](O)[C@@H]1F [Clofarabine] (top concentration 10000 nM) | 4.3
23 | Cc1ccc(C(=O)Nc2ccc(Oc3cc4cnn(C)c4cc3-c3cn[nH]c3)c(F)c2)c(=O)n1-c1ccc(F)cc1 [Merestinib] (top concentration 1000 nM) | -0.62
24 | Nc1ncn([C@@H]2O[C@H](CO)[C@@H](O)[C@H]2O)c(=O)n1 [Azacitidine] (top concentration 10000 nM) | 3.64
25 | CC(C)c1cc(-c2n[nH]c(=O)n2-c2ccc3c(ccn3C)c2)c(O)cc1O [Ganetespib] (top concentration 1000 nM) | 6.64
26 | C[C@]1(c2nc3c(C(N)=O)cccc3[nH]2)CCCN1 [Veliparib] (top concentration 10000 nM) | -1.48
27 | CC(=O)Nc1cccc(-n2c(=O)n(C3CC3)c(=O)c3c(Nc4ccc(I)cc4F)n(C)c(=O)c(C)c32)c1 [Trametinib] (top concentration 250 nM) | -6.04

The molecules below were run on HPB-ALL in the same assay as above. Details: 72 h.

Row | SMILES | selective drug sensitivity score
28 | C/C=C1\NC(=O)[C@H]2CSSCC/C=C/[C@H](CC(=O)N[C@H](C(C)C)C(=O)N2)OC(=O)[C@H](C(C)C)NC1=O [Romidepsin] (top concentration 1000 nM) | 3.66
29 | CN(C)CCOc1ccc(/C(=C(/CCCl)c2ccccc2)c2ccccc2)cc1 [Toremifene] (top concentration 10000 nM) | -1.72
30 | CCCCc1nc2cc(/C=C/C(=O)NO)ccc2n1CCN(CC)CC [Pracinostat] (top concentration 10000 nM) | 6.88
31 | Cn1ncc(Cl)c1-c1cc(C(=O)N[C@H](CN)Cc2cccc(F)c2)sc1Cl [Afuresertib] (top concentration 1000 nM) | 2.86
32 | Cc1cc(-c2nc(-c3ccc(OC(F)(F)F)cc3)no2)nn1Cc1ccnc(N2CCN(C3CC3)CC2)c1 [BAY_87-2243] (top concentration 1000 nM) | 8.54
33 | CNc1nc(-c2ccc3c(N)n[nH]c3c2)cc(N2C[C@@H](C(=O)NC3CCCCC3)CC[C@H]2C)n1 (top concentration 10000 nM) | 1.86
34 | CN1CC[C@H](c2c(O)cc(O)c3c(=O)cc(-c4ccccc4Cl)oc23)[C@H](O)C1 [Alvocidib] (top concentration 10000 nM) | -3.1
35 | Cc1cc2c(C(C)C)c(O)c(O)c(C=O)c2c(O)c1-c1c(C)cc2c(C(C)C)c(O)c(O)c(C=O)c2c1O [AT-101] (top concentration 100000 nM) | 10.9
36 | Cc1ccc(C(=O)Nc2cccc(C(F)(F)F)c2)cc1Nc1nc(-c2cccnc2)nc2c1cnn2C [NVP-BHG712] (top concentration 10000 nM) | 0.18
37 | COC[C@H](NC(=O)c1cnc(C)s1)C(=O)N[C@@H](COC)C(=O)N[C@@H](Cc1ccccc1)C(=O)[C@@]1(C)CO1 [Oprozomib] (top concentration 2500 nM) | -0.5
38 | Cc1ccc(C(=O)N(CCCN)[C@@H](c2oc3cc(Cl)ccc3c(=O)c2Cc2ccccc2)C(C)C)cc1 (top concentration 100 nM) | 13.8
39 | CCn1c(C(=O)N(C2CC2)C2CC2)cc2c3c(ncn3C)c(Nc3cc(C)n(C)n3)nc21 (top concentration 10000 nM) | -3.16
40 | Nc1nc(Cl)nc2c1ncn2[C@@H]1O[C@H](CO)[C@@H](O)[C@@H]1F [Clofarabine] (top concentration 10000 nM) | -8.5
41 | Cc1ccc(C(=O)Nc2ccc(Oc3cc4cnn(C)c4cc3-c3cn[nH]c3)c(F)c2)c(=O)n1-c1ccc(F)cc1 [Merestinib] (top concentration 1000 nM) | -0.62
42 | Nc1ncn([C@@H]2O[C@H](CO)[C@@H](O)[C@H]2O)c(=O)n1 [Azacitidine] (top concentration 10000 nM) | 7.94
43 | CC(C)c1cc(-c2n[nH]c(=O)n2-c2ccc3c(ccn3C)c2)c(O)cc1O [Ganetespib] (top concentration 1000 nM) | 0.64
44 | C[C@]1(c2nc3c(C(N)=O)cccc3[nH]2)CCCN1 [Veliparib] (top concentration 10000 nM) | -0.28
45 | CC(=O)Nc1cccc(-n2c(=O)n(C3CC3)c(=O)c3c(Nc4ccc(I)cc4F)n(C)c(=O)c(C)c32)c1 [Trametinib] (top concentration 250 nM) | -0.24
